From patent EP2742955A1, “Nanoparticles based on bioconjugate of GAG” (Centre National de la Recherche Scientifique, priority 2012, dated 2014) come the findings set out here.

Data set [1] is described as follows: Plasma Fpx concentration (anti-FXa assay) after oral and intravenous administration of aqueous nanoparticulate suspensions. Type of data set: in vivo, male Sprague-Dawley rats. Here is the method:
The anticoagulant activity of Fpx:Sq^+ aqueous nanoparticulate suspensions of example 4 was evaluated in vivo after oral and intravenous (IV) administration in male Sprague-Dawley rats. The following formulations were administrated orally to the rats (n=4) with the help of feeding needle (Harvard Apparatus, France): NPs at the optimized ratio 1:6 at 25 mg/kg (eq. Fpx) and 50 mg/kg (eq. Fpx), Fpx saline solution at 50 mg/kg and isotonic sodium chloride solution as control. The volume of the administrated solution was 1 mL per 100 g of the rat weight. Blood samples were periodically taken from the jugular vein after anesthesia with isoflurane and the plasma concentration of active Fpx was estimated using an anti-FXa assay. Additionally, a saline solution of Fpx and NPs at the optimized ratio 1:6, both at 200 µg/kg (eq. Fpx) were injected intravenously to the rats (n=3) through the tail vein after anesthesia with isoflurane. Blood samples were periodically taken and the plasma concentration of active Fpx was estimated using an anti-FXa assay. […]

Data set [2] is described as follows: Permeation of Fpx across fresh intestinal tissue in Ussing-type chambers. Type of data set: in vitro ADME, male Sprague Dawley rats. Here is the method: The permeation of Fpx in solution was investigated through the intestinal epithelium at 37°C, in the two directions (mucosal-to-serosal, M-S, absorptive direction and serosal-to-mucosal, S-M, secretory direction) and in presence or not of verapamil, an inhibitor of P-gp (P-glycoprotein) (Fig. 3).
Ussing-type chambers were used to evaluate the permeation of Fpx in fresh intestinal tissues, under the free form and loaded in NPs. For permeation studies non fasting male Sprague Dawley rats weighting 250 to 300 g were used. After sacrificing the rats, jejunum from fresh small intestine was excised and rinsed with chilled physiological solution (isotonic Sorensen's Phosphate buffer solution: 0.2 mM Na2HPO4; 0.2 mM NaH2PO4, H2O with a pH of 6.8). The excised intestine was cut into segments of 2 - 3 cm length and mounted in Ussing chamber (0.75 cm^2 surface area) bathed with Sorensen buffer pH 6.8 in mucosal and serosal sides. The system was maintained at 37°C and continuously oxygenated with O2/CO2 (95% /5%). After equilibration at the temperature of the experiment (15 min), Fpx in solution or loaded in NPs at the concentration of 2 mg/mL were added to the donor compartment. For this purpose, 1.2 mL of Fpx:Sq^+ NPs (at Fpx concentration of 5 mg/mL were diluted in 1.8 mL of Sorensen buffer pH 6.8 prior to the addition to the donor chamber. After 0, 30, 60, 90, 120, 150 and 180 min, 500 µL samples were taken out from the acceptor chambers and replaced with the same volume of fresh transport medium pre-equilibrated at 37°C. The samples were stored at 4°C until analysis. Fpx was quantified by the Azure A assay and Anti-Xa assay. The influence of verapamil was investigated on the intestinal permeation of Fpx in solution and loaded in NPs. For this purpose, verapamil was added to the Sorensen buffer at the concentration of 0.1 mM in the serosal compartment five minutes before the experiment.
Thus, figure 3 is a diagram showing a comparison of the permeation of Fpx across the intestinal tissue under the following experimental conditions: mucosal-to-serosal direction (M-S, continuous lines); serosal-to-mucosal direction (S-M, broken line) and in presence (open symbols) or in absence (filled symbols) of verapamil. Donor chambers contained initially 2 mg/mL of Fpx. Data represent means ± SEM of at least six independent experiments.
Donor chambers contained 2 mg/mL of Fpx and Sq^+ in molar ratio Fpx to Sq^+ 1:6. Data represent means ± SEM of at least six independent experiments.
At last, figure 5 represents a diagram showing net fluxes of Fpx in free form or in Fpx:Sq+ NPs in the presence or in the absence of verapamil when added in serosal side at 180 min. Values are indicated as means SEM at least six experiments. (** p< 0.05) Fpx:Sq^+ NPs vs Fpx:Sq NPs + verapamil; (* p< 0.05) Fpx vs Fpx:Sq^+ NPs; (**** p<0.05) Fpx + verapamil vs Fpx.

Turning to `CO[C@H]1O[C@H](COS(=O)(=O)O)[C@@H](O[C@@H]2O[C@@H](C(=O)O)[C@@H](O[C@H]3O[C@H](COS(=O)(=O)O)[C@@H](O[C@@H]4O[C@H](C(=O)O)[C@@H](O[C@H]5O[C@H](COS(=O)(=O)O)[C@@H](O)[C@H](O)[C@H]5NS(=O)(=O)O)[C@H](O)[C@H]4O)[C@H](OS(=O)(=O)O)[C@H]3NS(=O)(=O)O)[C@H](O)[C@H]2OS(=O)(=O)O)[C@H](O)[C@H]1NS(=O)(=O)O` [Fpx, Fondaparinux], in data set [1] (male, Sprague-Dawley, rat, plasma, 200 ug/kg, intravenous, 200 µg/kg (eq. Fpx), rats n=3, read-out: maximum plasma concentration (Cmax)), the Cmax was 160 ng/mL. In data set [1] (oral, saline solution 50 mg/kg), the “oral absorption (concentration-time profile vs control group)” value is given as “not absorbed”. In addition, the “permeated Fpx concentration” value in data set [2] (M-S direction, 120 min, absence of verapamil, donor 2 mg/mL Fpx, 37°C) is on record as 4.5 µg/mL; in data set [2] (M-S direction, 180 min, absence of verapamil, donor 2 mg/mL Fpx, 37°C) it was 4.9 µg/mL; in data set [2] (M-S direction, 180 min, verapamil 0.1 mM in the receptor (serosal) compartment), 12.6 µg/mL; in data set [2] (S-M direction, 180 min, absence of verapamil, donor 2 mg/mL Fpx, 37°C), 7.8 µg/mL. Besides, in data set [2] (net fluxes at 180 min, verapamil in serosal side, vs free Fpx), the “factor of increase of Fpx fluxes in the presence of verapamil” value amounted to 4.2.
